From PubChem BioAssay AID652053 (Broad Institute, 2013)

Test system: Huh7 psiCHECK-miR122 Renilla luciferase reporter, 48 h
Experiment: miR-122 inhibitors in Huh7 reporter cells, dose response, cell-based, Huh7 psiCHECK-miR122, Renilla luciferase, cherry-pick (AID 652053)

SMILES	AC40 [µM]
CC1CC(C)CN(S(=O)(=O)c2ccc(NC(=O)c3ccc(=O)[nH]c3)cc2)C1 (centres undefined)	12
C[C@H](CO)N1C[C@H](C)[C@H](CN(C)Cc2ccc(C(=O)Nc3ccccc3N)cc2)Oc2c(NC(=O)Nc3ccccc3)cccc2C1=O	30.8
O=C(COc1ccc(S(=O)(=O)NC2CCCCC2)cc1)NC1CCCC1	8.46
O=C(c1cn(Cc2ccccc2)nc1-c1ccc(Cl)cc1)N1CCN(c2ccccn2)CC1	3.28
COc1ccc(NC(=O)c2cccc(S(=O)(=O)Nc3ccc(Br)cc3)c2)cn1	2.11
C[C@H](CO)N1C[C@H](C)[C@H](CN(C)Cc2ccc3c(c2)OCO3)Oc2c(NC(=O)C3CCOCC3)cccc2C1=O	10.5
O=S(=O)(Nc1cccc(-n2cnnn2)c1)c1cc(Br)ccc1Br	4.94
Cc1cccc(NS(=O)(=O)c2ccc(-c3cnc(C4CC4)o3)cc2)c1	2.13
C[C@@H]1CCCCO[C@@H](CN(C)CC2CCCCC2)[C@@H](C)CN([C@H](C)CO)C(=O)c2cc(NC(=O)CCC(F)(F)F)ccc2O1	9.73
CC(=O)N1CCCc2cc(S(=O)(=O)Nc3ccc4c(c3)OCO4)ccc21	6.16
C[C@H](CO)N1C[C@H](C)[C@@H](CN(C)Cc2ccc(C(F)(F)F)cc2)Oc2c(cccc2N(C)C)C1=O	2.48
Cc1ccc(NS(=O)(=O)c2ccc3c(c2)n(C)c(=O)n3C)cc1C	3.8
COc1ccc(OC)c(S(=O)(=O)Nc2cc3c4c(c2)CCC(=O)N4CCC3)c1	0.84
COc1ccc(C2C(Oc3ccccc3)C(=O)N2c2cc(C)ccc2C)cc1OC (centres undefined)	23.1
Cc1cc2c(cc1S(=O)(=O)NCCc1ccccc1)NC(=O)CO2	4.41
Cc1ccc(C(=O)NCc2ccncc2)cc1S(=O)(=O)Nc1cccc(C)c1C	1.93
CCOc1cc(S(=O)(=O)Nc2cc(C)cc(C)c2)ccc1Cl	1.99
Cc1cccc(NS(=O)(=O)c2cc3c(cc2C)NC(=O)CO3)c1	2.36
C/C(CC(=O)Nc1ccccn1)=N\NC(=O)c1ccccc1O	2.59
COc1ccc(NS(=O)(=O)c2cc(NC(=O)c3cccc(OCc4c(C)noc4C)c3)ccc2OC)cc1	2.57
COc1cccc(C(O)c2ncc(-c3cccc(F)c3)[nH]2)c1 (centres undefined)	17.3
CCOc1ccccc1CN(Cc1ccco1)S(=O)(=O)c1ccc(-n2cnnn2)c(OC)c1	4.36
COc1ccc(C)cc1NS(=O)(=O)c1ccc2c(c1)CCN2C(C)=O	8.33
COc1cccc(NS(=O)(=O)c2cc(C)ccc2OC)c1	1.53
COc1ccc(C(C)(C)C)cc1S(=O)(=O)NCC1CCCO1 (centres undefined)	0.329

SMILES	AC40 [µM]
CC(C)(C)NS(=O)(=O)c1ccc(OCC(=O)Nc2ccc3c(c2)OCCO3)cc1	14.7
OCC1OC(n2cnc3c(NCc4ccccc4O)ncnc32)C(O)C1O (centres undefined)	3.86
O=S(=O)(NCCc1ccccc1)c1cccc(S(=O)(=O)N2CCOCC2)c1	6
Cc1ccc(-c2n[nH]c(=O)c3ccccc23)cc1S(=O)(=O)NCCN1CCOCC1	15.4
CSc1nc(-c2ccc(C)cc2)[nH]c1S(=O)(=O)c1ccccc1	15.9
C[C@H](CO)N1C[C@H](C)[C@@H](CN(C)Cc2ccc(C(F)(F)F)cc2)Oc2c(NC(=O)C3CC3)cccc2C1=O	0.387
C[C@@H]1CN([C@H](C)CO)C(=O)c2cccc(NC(=O)Nc3ccc(F)cc3)c2O[C@H]1CN(C)Cc1ccc(C(F)(F)F)cc1	1.51
NC(=O)Cn1cc(/C=N\NS(=O)(=O)c2ccc(Cl)cc2)c2ccccc21	3.75
COc1ccccc1NS(=O)(=O)c1cc(Cl)ccc1OC	15.9
COc1cc(S(=O)(=O)Nc2ccccc2N2CCCCC2)ccc1NC(C)=O	6.94
CCOC(=O)c1c(C)[nH]c(C)c1S(=O)(=O)NCCCc1ccco1	5.96
O=S(=O)(c1ccccc1F)N1CC[C@@H]2[C@@H](CO)Nc3ccc(-c4ccc(F)cc4)cc3[C@@H]21	5.7
COc1ccc(NS(=O)(=O)c2ccc(N3CCOCC3)c(NC(=O)c3ccc(F)cc3)c2)cc1	7.87
CC(C)CC#Cc1ccc2c(c1)O[C@H](CN(C)C(=O)Nc1ccccc1F)[C@@H](C)CN([C@@H](C)CO)S2(=O)=O	2.15
Cc1ccc(NS(=O)(=O)c2cc(C(=O)NCCSc3ccc(C)cc3)ccc2C)cc1	4.89
CC(C)c1ccc(S(=O)(=O)Nc2ccc(-n3cnnn3)cc2)cc1	2.55
CSc1ccc(S(=O)(=O)NC2CCCCC2)cc1	2.87
COc1cc(OC)c(NS(=O)(=O)c2ccc(Cl)c(C(=O)OC(C)C(=O)N3CCCC3)c2)cc1Cl (centres undefined)	8.08
Cc1ccc(S(=O)(=O)Nc2ccc3nc(N)sc3c2)cc1	2
CCN(CC)c1ccc(S(=O)(=O)Nc2cc(Cl)ccc2Cl)cc1NC(=S)NC(=O)C1CCCC1	7.34
COc1ccc(S(=O)(=O)Nc2cc3c(C(C)=O)c(C)oc3c3ccccc23)cc1	14.9
C[C@H](CO)N1C[C@H](C)[C@@H](CN(C)Cc2ccc(Oc3ccccc3)cc2)Oc2c(NC(=O)C3CCOCC3)cccc2C1=O	1.31
COc1ccc(CN(C(=O)c2ccc(-c3ccccc3)[nH]2)C(C(=O)NCC2CCCO2)c2ccc(C)o2)cc1 (centres undefined)	5.58
C[C@H]1CN([C@@H](C)CO)C(=O)c2cc(N(C)C)ccc2O[C@H]1CN(C)Cc1ccc(C(=O)Nc2ccccc2N)cc1	5.42
C[C@@H]1CN([C@H](C)CO)C(=O)c2cccc(NC(=O)Nc3ccccc3)c2O[C@H]1CN(C)Cc1ccc(C(F)(F)F)cc1	3.22

SMILES	AC40 [µM]
Cc1cc(C)c(S(=O)(=O)NC(C)C)c(C)c1-n1cnnn1	1.3
O=S(=O)(NCCc1ccncc1)c1cc(Br)ccc1F	2.66
COc1ccc(S(=O)(=O)NCc2ccccc2)cc1	2.53
CN1C(=O)c2cc(NC(=O)NCc3ccccc3)ccc2OC[C@@H]2O[C@@H](CC(=O)NCC3CCCCC3)CC[C@@H]21	3.21
Fc1ccccc1Cn1cc(C(=S)N2CCOCC2)c2ccccc21	12.4
Cc1ccc(S(=O)(=O)Nc2cc(C)c(O)c(S(=O)(=O)c3ccc(C)cc3)c2)cc1	11.2
COCCNC(=O)C[C@@H]1CC[C@H]2[C@H](COc3ccc(NC(=O)Cc4ccccc4)cc3C(=O)N2C)O1	1.34
COc1cc(C)c(Cl)c(C)c1S(=O)(=O)NCc1cccnc1	2.3
Cc1ccccc1NS(=O)(=O)c1cc(C(=O)Nc2cccnc2)ccc1C	5.17
O=C(NCc1ccco1)c1ccc(Cl)c(S(=O)(=O)Nc2ccccc2)c1	4.59
O=S(=O)(Nc1ncnc2c1oc1ccccc12)c1ccc(Cl)s1	18.8
Cc1ccccc1NC(=O)c1ccc(NS(=O)(=O)c2cc(C(C)(C)C)cc(C)c2C)cc1	< 0.26
CSc1ccc(S(=O)(=O)NC2CCCCCC2)cc1	1.72
C[C@H](CO)N1C[C@H](C)[C@@H](CN(C)Cc2ccc3c(c2)OCO3)Oc2c(NC(=O)C3CCOCC3)cccc2C1=O	9.34
Cc1ccc(NS(=O)(=O)c2cccc(C(=O)N(C)Cc3cccs3)c2)cc1	3.04
COc1ccc(Cl)cc1N(CC(=O)N1CCCC1)S(=O)(=O)c1ccc(C)cc1	2.49
COc1ccc(N(CC(=O)Nc2cc(C)on2)S(=O)(=O)c2cc(C)ccc2C)cc1	5.67
Cc1ccc(NS(=O)(=O)c2cccc3nsnc23)cc1C	4.13
COc1ccc(S(=O)(=O)N(C)C[C@H]2Oc3ccc(NC(=O)Nc4ccc(C(F)(F)F)cc4)cc3C(=O)N([C@@H](C)CO)C[C@H]2C)cc1	8.41
COc1ccc(NS(=O)(=O)c2cc(N)ccc2N2CCOCC2)cc1	6.74
COc1cccc(N2CCN(C(=O)c3oc4ccccc4c3NC(=O)Cc3ccc(OC)c(OC)c3)CC2)c1	1.62
COc1ccc(S(=O)(=O)NC2CCCCC2)cc1C	3.14
Cc1ccc(NS(=O)(=O)c2cc3c4c(c2)CC(=O)N4CCC3)cc1C	2.61
Cc1ccc(C(=O)Nc2ccc(Cl)cc2C(=O)c2ccccc2)cc1	18.6
CC1=CC(C)(C)N(S(=O)(=O)c2ccc(C)cc2)c2cc(C)ccc21	3.72

SMILES	AC40 [µM]
COc1ccccc1CNS(=O)(=O)c1ccc(-c2cc(C)no2)cc1	10.8
COc1cccc(N2CCN(C(=O)c3ccc(CS(=O)c4ccccc4Cl)o3)CC2)c1 (centres undefined)	15.8
CC(=O)N1CCSc2ccc(S(=O)(=O)NCCc3ccc(Cl)cc3)cc21	4.57
Cc1ccc(S(=O)(=O)N2CC[C@@H]3[C@@H](CO)Nc4ccc(-c5ccccc5F)cc4[C@@H]32)cc1	1.69
Cc1ccc(NS(=O)(=O)c2cc(C(=O)NCCSC3CCCCC3)ccc2C)cc1	4.68
COc1ccc(S(=O)(=O)NCc2ccccc2)cc1Br	5.07
COc1ccc(OC)c(NS(=O)(=O)c2ccc(N3CCCC3=O)cc2)c1	14.8
Cc1ccc(NC(=S)NCc2ccc(F)cc2)cc1	20.3
O=c1c2ccccc2nnn1CSc1nnc(C2COc3ccccc3O2)n1-c1ccccc1 (centres undefined)	19.2
Cc1cccc(C(=O)Nc2cccc(S(=O)(=O)NCc3ccco3)c2)c1	3.29
CN(C)Cc1ccccc1CNC(=O)c1cccc(S(=O)(=O)Nc2ccc3c(c2)OCO3)c1	2.15
Cc1ccc(S(=O)(=O)NCCN2CCOCC2)c(C)c1C	6.26
Cc1cc(C)cc(Cn2c3ccc(NC(=S)NCc4ccccc4F)cc3c(=O)n2C)c1	4.19
Cc1ccc(NS(=O)(=O)c2cc(C(=O)N3CCN(C)CC3)ccc2C)cc1C	25.1
Cc1ccc(NS(=O)(=O)c2cc(-c3cc(C)no3)ccc2C(C)C)nc1	2.23
C[C@@H]1CN([C@H](C)CO)C(=O)Cc2cc(N(C)C)ccc2O[C@@H]1CN(C)Cc1ccc(C(=O)Nc2ccccc2N)cc1	11.1
CCC(=O)Nc1ccc(S(=O)(=O)NCCc2ccccc2)cc1	10.7
CCNc1ccc(S(=O)(=O)N(C)C)cc1NCC(=O)Nc1ccc(F)c(Cl)c1	1.45
CCCCNS(=O)(=O)c1ccc2nc(-c3cccnc3)cc(C(=O)NC3CCCC3)c2c1	5.37
COc1ccccc1NS(=O)(=O)c1cc(NC(=O)c2cc(=O)[nH]c3ccccc23)ccc1N1CCOCC1	1.01
Cc1ccc(S(=O)(=O)Nc2ccc3c(c2)CC(=O)N([C@H](C)CO)C[C@@H](C)[C@H](CN(C)Cc2ccc(C(=O)Nc4ccccc4N)cc2)O3)cc1	17.2
CCc1cccc(NS(=O)(=O)c2ccc3c(c2)NC(=O)CO3)c1	7
Oc1ccc(/C=N/NP(=S)(c2ccccc2)c2ccccc2)cc1	7.07
CCN(CC)S(=O)(=O)c1ccc(C)c(NCC(=O)Nc2ccc(C#N)c(Cl)c2)c1	1.77
